“And” between values parts separate entries of the source, which are not always exact repeats. Equal entries are not always repeated. Toxic doses and inconclusive results are not listed.
System: L1210 leukemia ip in BDF1 mice, survival T/C
Assay: NCI In Vivo Anticancer Drug Screen. Data for tumor model L1210 Leukemia (intraperitoneal) in B6D2F1 (BDF1) mice
Conditions: endpoint: mean survival time, higher = longer survival
Outline: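 Each compound was tested against a transplantable tumor grown in mice. The endpoint was survival, with treated animals benchmarked against vehicle controls as a simple ratio.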

Nc1ccc(Cl)cc1Br
T/C (dose: 50.0 mg/kg/injection, schedule: Q01DX009 (ip), vehicle: acetone): 95 % of control | T/C (dose: 100.0 mg/kg/injection, schedule: Q01DX009 (ip), vehicle: acetone): 92 % of control | T/C (dose: 100.0 mg/kg/injection, schedule: Q04DX003 (ip), vehicle: acetone): 96 % of control | T/C (dose: 200.0 mg/kg/injection, schedule: Q01DX009 (ip), vehicle: acetone): 90 % of control | T/C (dose: 200.0 mg/kg/injection, schedule: Q04DX003 (ip), vehicle: acetone): 100 % of control | T/C (dose: 400.0 mg/kg/injection, schedule: Q04DX003 (ip), vehicle: acetone): 96 % of control

ClCCCCOCBr
T/C (dose: 50.0 mg/kg/injection, schedule: Q01DX009 (ip), vehicle: saline with Tween-80): 97 % of control | T/C (dose: 100.0 mg/kg/injection, schedule: Q01DX009 (ip), vehicle: saline with Tween-80): 104 % of control | T/C (dose: 200.0 mg/kg/injection, schedule: Q01DX009 (ip), vehicle: saline with Tween-80): 95 % of control

COc1cc(/C=N/NC(=O)c2ccccc2NC(=O)c2ccccc2)ccc1O
T/C (dose: 100.0 mg/kg/injection, schedule: Q01DX009 (ip), vehicle: Klucel (hydroxypropylcellulose) (HPC)): 97 % of control | T/C (dose: 200.0 mg/kg/injection, schedule: Q01DX009 (ip), vehicle: Klucel (hydroxypropylcellulose) (HPC)): 95 % of control | T/C (dose: 400.0 mg/kg/injection, schedule: Q01DX009 (ip), vehicle: Klucel (hydroxypropylcellulose) (HPC)): 100 % of control

CCOc1ccc(C(=O)CCN2CCOCC2)cc1
T/C (dose: 100.0 mg/kg/injection, schedule: Q01DX001 (ip), vehicle: saline): 100 % of control | T/C (dose: 200.0 mg/kg/injection, schedule: Q01DX001 (ip), vehicle: saline): 118 % of control

c1ccc(-c2csnn2)cc1
T/C (dose: 200.0 mg/kg/injection, schedule: Q01DX001 (ip), vehicle: carboxymethylcellulose (CMC)): 91 % of control | T/C (dose: 400.0 mg/kg/injection, schedule: Q01DX001 (ip), vehicle: carboxymethylcellulose (CMC)): 115 % of control

CN(O)C(N)=O
T/C (dose: 25.0 mg/kg/injection, schedule: Q03HX024 (ip), vehicle: saline): 160 % of control | T/C (dose: 35.0 mg/kg/injection, schedule: Q01DX009 (ip), vehicle: saline): 124 % of control | T/C (dose: 50.0 mg/kg/injection, schedule: Q03HX024 (ip), vehicle: saline): 124 % of control | T/C (dose: 75.0 mg/kg/injection, schedule: Q04DX003 (ip), vehicle: saline): 108 % of control | T/C (dose: 100.0 mg/kg/injection, schedule: Q01DX009 (ip), vehicle: saline): 151 % of control | T/C (dose: 115.0 mg/kg/injection, schedule: Q04DX003 (ip), vehicle: saline): 108 % of control | T/C (dose: 175.0 mg/kg/injection, schedule: Q04DX003 (ip), vehicle: saline): 119 % of control | T/C (dose: 177.0 mg/kg/injection, schedule: Q01DX009 (ip), vehicle: saline): 152 % of control and 170 % of control | T/C (dose: 200.0 mg/kg/injection, schedule: Q01DX009 (ip), vehicle: saline): 158 % of control | T/C (dose: 265.0 mg/kg/injection, schedule: Q04DX003 (ip), vehicle: saline): 115 % of control | T/C (dose: 266.0 mg/kg/injection, schedule: Q01DX009 (ip), vehicle: saline): 194 % of control | T/C (dose: 267.0 mg/kg/injection, schedule: Q01DX009 (ip), vehicle: saline): 151 % of control | T/C (dose: 400.0 mg/kg/injection, schedule: Q04DX003 (ip), vehicle: saline): 166 % of control | T/C (dose: 500.0 mg/kg/injection, schedule: Q01DX009 (ip), vehicle: saline): 100 % of control | T/C (dose: 800.0 mg/kg/injection, schedule: Q01DX009 (ip), vehicle: saline): 103 % of control | T/C (dose: 900.0 mg/kg/injection, schedule: Q04DX003 (ip), vehicle: saline): 115 % of control

CC(=O)OCC(OC(C)=O)C(OC(C)=O)C(OC(C)=O)C(COC(=O)c1ccccc1)OC(=O)c1ccccc1 (stereo unspecified)
T/C (dose: 100.0 mg/kg/injection, schedule: Q01DX001 (ip), vehicle: saline with Tween-80): 108 % of control | T/C (dose: 200.0 mg/kg/injection, schedule: Q01DX001 (ip), vehicle: saline with Tween-80): 89 % of control | T/C (dose: 400.0 mg/kg/injection, schedule: Q01DX001 (ip), vehicle: saline with Tween-80): 104 % of control

COC(=O)C1C2C=CC(C2=C(C)C)C1C(=O)OC (stereo unspecified)
T/C (dose: 50.0 mg/kg/injection, schedule: Q04DX003 (ip), vehicle: Klucel (hydroxypropylcellulose) (HPC)): 100 % of control | T/C (dose: 100.0 mg/kg/injection, schedule: Q01DX001 (ip), vehicle: Klucel (hydroxypropylcellulose) (HPC)): 92 % of control | T/C (dose: 100.0 mg/kg/injection, schedule: Q04DX003 (ip), vehicle: Klucel (hydroxypropylcellulose) (HPC)): 98 % of control | T/C (dose: 200.0 mg/kg/injection, schedule: Q01DX001 (ip), vehicle: Klucel (hydroxypropylcellulose) (HPC)): 96 % of control | T/C (dose: 200.0 mg/kg/injection, schedule: Q04DX003 (ip), vehicle: Klucel (hydroxypropylcellulose) (HPC)): 94 % of control | T/C (dose: 400.0 mg/kg/injection, schedule: Q01DX001 (ip), vehicle: Klucel (hydroxypropylcellulose) (HPC)): 91 % of control

From PubChem BioAssay AID248 (DTP/NCI, 2004)
